# Laboratory results as given in BindingDB's records for doi:10.1021/jm801126a (Cornell University, 2009).
# Target: T1, S-adenosylmethionine decarboxylase proenzyme (Homo sapiens, UniProt P17707)
# T1 sequence (P17707 whole entry): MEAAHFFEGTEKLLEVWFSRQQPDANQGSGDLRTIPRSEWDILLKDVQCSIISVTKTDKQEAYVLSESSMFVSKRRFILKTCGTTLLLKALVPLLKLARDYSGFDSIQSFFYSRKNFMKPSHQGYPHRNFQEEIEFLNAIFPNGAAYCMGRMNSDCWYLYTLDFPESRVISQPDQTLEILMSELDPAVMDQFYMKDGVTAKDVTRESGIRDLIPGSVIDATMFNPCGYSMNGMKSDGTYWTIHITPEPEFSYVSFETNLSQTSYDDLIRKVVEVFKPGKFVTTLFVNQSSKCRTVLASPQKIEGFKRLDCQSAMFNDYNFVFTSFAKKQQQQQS
# Experiment: AdoMetDC Inhibition Assay
# Method: The C-terminal his-tagged AdoMetDC was assayed by measuring the release of 14CO2 from S-adenosyl-L-[carboxy-14C]methionine (Amersham Pharmacia Biotech). For determination of the abilities of compounds to inhibit AdoMetDC, the enzyme activity was determined in the presence of no inhibitor and at least five concentrations of each potential inhibitor. The IC50 values were determined from curve fitting to plots of the inhibitor concentration versus the % inhibition of AdoMetDC.
smiles,measurement,value
"C[S+](C)C[C@H]1O[C@@H](n2cnc3c(N)ncnc32)[C@H](O)[C@@H]1O [{[(2S,3S,4R,5R)-5-(6-amino-9H-purin-9-yl)-3,4-dihydroxyoxolan-2-yl]methyl}dimethylsulfanium chloride]",IC50,15 µM
